Results on 18 compounds are retold here after patent US12692253B2, “Antimicrobial compounds and methods” (Curza Global, LLC, priority 2019, dated 2026).

The test system of assay [1] is E. coli S30 extract (bacterial protein synthesis). The experiment in a line: E. coli S30 extract coupled transcription-translation luciferase assay (inhibition of bacterial protein synthesis). Type of assay: biochemical. The conditions noted are these: % inhibition @ 1 μM, read-out: S30 IC50 (μM/% inhib.). In a few lines:
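Coupled transcription-translation in E. coli S30 circular-DNA extract expressing luciferase from pBESTluc, with 8-point 2-fold compound dilutions; 1 hour at 37 °C, stopped at 4 °C. Luminescence read; % inhibition versus no-inhibitor wells, no-DNA wells as background.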

The target of assay [2] is Rabbit Reticulocyte Lysate (eukaryotic protein synthesis). The assay is described as follows: Rabbit reticulocyte lysate luciferase assay (inhibition of eukaryotic protein synthesis). It counts as biochemical. Particulars: % inhibition @ 1 μM, read-out: Rabbit reticulocyte IC50 (μM/% inhib.). The method in brief:
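In vitro translation of luciferase control RNA in nuclease-treated rabbit reticulocyte lysate with amino acid mixture, compounds in 2-fold serial dilution, 90 minutes at 30° C. Luminescence read after luciferase reagent; % inhibition relative to water no-inhibitor controls, with no-RNA background wells.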

In assay [3] the test system is A. baumannn (Ab). The experiment in a line: Broth microdilution minimum inhibitory concentration (MIC), CLSI. It counts as cell-based. Particulars: A. baumannn, growth medium with sodium bicarbonate; for MIC: read-out: Ab + bicarb MIC. The method in brief: (§1)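 Bacteria grown at 35±2 °C to 0.5 McFarland turbidity were added at 5×10^4 CFU/well to triplicate two-fold compound series (8 dilutions). Media were cation-adjusted Mueller-Hinton broth alone or with sodium bicarbonate (6.25 or 25 mM final) or heat-inactivated human serum (0–50%), per modified CLSI method.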

For assay [4], the system named is E. coli (Ec). Described as above. It counts as cell-based. The conditions noted are these: growth medium with sodium bicarbonate; for MIC: Escherichia coli, read-out: E. coli + bicarb MIC. The method in brief: as §1
Assay [5] has as its system E. faecalis (Ef). Described as above. It counts as cell-based. Particulars: growth medium with sodium bicarbonate; for MIC: Enterococcus faecalis, read-out: Ef + bicarb MIC. In a few lines: as §1
Assay [6] concerns P. aeruginosa (Pa). The assay is described as above. It counts as cell-based. The conditions noted are these: growth medium with sodium bicarbonate; for MIC: Pseudomonas aeruginosa, read-out: Pa MIC + bicarb. The method in brief:
as §1

Assay [7] deals with S. aureus (Sa). Described as above. Type of assay: cell-based. Particulars: growth medium with sodium bicarbonate; for MIC: Staphylococcus aureus, read-out: Sa + bicarb MIC. In a few lines:
as §1

As a reminder, the MIC is the least concentration at which growth counts as inhibited.

Molecules are shown by their SMILES.

With `CC(Cc1ccc(-n2ccc(NC(=O)N3CCN(C(=O)C(C)(C)N)CC3)nc2=O)cc1)N1CCC2(CC(N)C2)C1` (stereo not drawn) [Compound 238], the IC50 is 0.5 to 1 µM in assay [1] and at least 1 µM in assay [2]. For the same compound, the “Ab + bicarb MIC” value in assay [3] is “+ (An MIC (μg/mL) value that is 32 μg/mL or greater)”. Besides, the “E. coli + bicarb MIC” value in assay [4] was “+++ (An MIC value (μg/mL) that is less than 8 μg/mL)”. The “Ef + bicarb MIC” value in assay [5] is on record as “+ (An MIC (μg/mL) value that is 32 μg/mL or greater)”. The “Pa MIC + bicarb” value in assay [6] is given as “+ (An MIC (μg/mL) value that is 32 μg/mL or greater)”. Moreover, the “Sa + bicarb MIC” value in assay [7] was “++ (An MIC value (μg/mL) that is 8 μg/mL or greater and less than 32 μg/mL)”.

For `CC(Cc1ccc(-n2ccc(NC(=O)N3CCN(C(=O)C(N)CCCN)CC3)nc2=O)cc1)N1C[C@@H]2[C@@H](CN)[C@@H]2C1` (stereo partly drawn) [Compound 239], the IC50 in assay [1] was below 0.5 µM; in assay [2], at least 1 µM. Besides, the MIC is above 32 µg/mL in assay [3]; below 8 µg/mL in assay [4]; above 32 µg/mL in assay [5]; above 32 µg/mL in assay [6]; 8 to 32 µg/mL in assay [7].

For `CC(Cc1ccc(-n2ccc(NC(=O)N3CCN(C(=O)[C@@H](N)CCCCN)CC3)nc2=O)cc1)N1C[C@@H]2[C@@H](CN)[C@@H]2C1` (stereo partly drawn) [Compound 240], the figures for the IC50 in assay [1] and in assay [2] were below 0.5 µM and at least 1 µM, respectively. Besides, the MIC in assay [3] was above 32 µg/mL; in assay [4], below 8 µg/mL; in assay [5], above 32 µg/mL; in assay [6], above 32 µg/mL; in assay [7], 8 to 32 µg/mL.

On to `CC(Cc1ccc(-n2ccc(NC(=O)N3CCN(C(=O)C(C)(C)NCS(=O)(=O)O)CC3)nc2=O)cc1)N1C[C@@H]2[C@@H](CNCS(=O)(=O)O)[C@@H]2C1` (stereo partly drawn) [Compound 241], for which the IC50 in assay [1] was below 0.5 µM; in assay [2] it was at least 1 µM. For the same compound, the MIC in assay [3] was above 32 µg/mL; in assay [4] it was below 8 µg/mL; in assay [5] it was 8 to 32 µg/mL; in assay [6], above 32 µg/mL; in assay [7], below 8 µg/mL.

Consider `CC(Cc1ccc(-n2ccc(NC(=O)N3CCN(C(=O)C(C)(C)N)CC3)nc2=O)cc1)N1CC2CCC(N)CC2C1` (stereo not drawn) [Compound 242], for which the IC50 is 0.5 to 1 µM in assay [1] and at least 1 µM in assay [2]. Also, in assay [3], the “Ab + bicarb MIC” value is “+ (An MIC (μg/mL) value that is 32 μg/mL or greater)”. For the same compound, the “E. coli + bicarb MIC” value in assay [4] is “+++ (An MIC value (μg/mL) that is less than 8 μg/mL)”. The “Ef + bicarb MIC” value in assay [5] is reported as “+ (An MIC (μg/mL) value that is 32 μg/mL or greater)”. Besides, the “Pa MIC + bicarb” value in assay [6] is listed as “+ (An MIC (μg/mL) value that is 32 μg/mL or greater)”. Besides, in assay [7], the “Sa + bicarb MIC” value is “++ (An MIC value (μg/mL) that is 8 μg/mL or greater and less than 32 μg/mL)”.

For the compound `CC(Cc1ccc(-n2ccc(NC(=O)N3CCN(C(=O)C(C)(C)N)CC3)nc2=O)cc1)N1CC2CCC(N)CC2C1` (stereo not drawn) [Compound 243], the results for the IC50 in assay [1] and in assay [2] were 0.5 to 1 µM and at least 1 µM, respectively. The “Ab + bicarb MIC” value in assay [3] was “+ (An MIC (μg/mL) value that is 32 μg/mL or greater)”. Also, in assay [4], the “E. coli + bicarb MIC” value is on record as “+++ (An MIC value (μg/mL) that is less than 8 μg/mL)”. Besides, the “Ef + bicarb MIC” value in assay [5] is listed as “+ (An MIC (μg/mL) value that is 32 μg/mL or greater)”. Also, the “Pa MIC + bicarb” value in assay [6] was “+ (An MIC (μg/mL) value that is 32 μg/mL or greater)”. In addition, the “Sa + bicarb MIC” value in assay [7] is “++ (An MIC value (μg/mL) that is 8 μg/mL or greater and less than 32 μg/mL)”.

`CCC(Cc1ccc(-n2ccc(NC(=O)N3CCN(C(=O)C(C)(C)N)CC3)nc2=O)cc1)N1CC2CCC(N)CC2C1` (stereo not drawn) [Compound 244]: the IC50 in assay [1] was 0.5 to 1 µM; in assay [2] it was at least 1 µM. Also, in assay [3], the “Ab + bicarb MIC” value is “+ (An MIC (μg/mL) value that is 32 μg/mL or greater)”. Also, the “E. coli + bicarb MIC” value in assay [4] is “+++ (An MIC value (μg/mL) that is less than 8 μg/mL)”. In addition, the “Ef + bicarb MIC” value in assay [5] was “++ (An MIC value (μg/mL) that is 8 μg/mL or greater and less than 32 μg/mL)”. In addition, the “Pa MIC + bicarb” value in assay [6] is reported as “+ (An MIC (μg/mL) value that is 32 μg/mL or greater)”. The “Sa + bicarb MIC” value in assay [7] is on record as “+++ (An MIC value (μg/mL) that is less than 8 μg/mL)”.

Take `CCC(Cc1ccc(-n2ccc(NC(=O)N3CCN(C(=O)C(C)(C)N)CC3)nc2=O)cc1)N1CC2CCC(N)CC2C1` (stereo not drawn) [Compound 245]: the IC50 in assay [1] was 0.5 to 1 µM; in assay [2] it was at least 1 µM. Besides, the “Ab + bicarb MIC” value in assay [3] was “+ (An MIC (μg/mL) value that is 32 μg/mL or greater)”. Further, the “E. coli + bicarb MIC” value in assay [4] is on record as “+++ (An MIC value (μg/mL) that is less than 8 μg/mL)”. Further, the “Ef + bicarb MIC” value in assay [5] is on record as “+ (An MIC (μg/mL) value that is 32 μg/mL or greater)”. Besides, in assay [6], the “Pa MIC + bicarb” value was “+ (An MIC (μg/mL) value that is 32 μg/mL or greater)”. Further, the “Sa + bicarb MIC” value in assay [7] is “++ (An MIC value (μg/mL) that is 8 μg/mL or greater and less than 32 μg/mL)”.

In the case of `CC(C)(N)C(=O)N1C[C@H]2CN(C(=O)Nc3ccn(-c4ccc(CN5C[C@@H]6[C@@H](N)[C@@H]6C5)cc4)c(=O)n3)C[C@H]2C1` [Compound 246], the IC50 in assay [1] and in assay [2] was at least 1 µM in each case. In addition, the MIC in assay [3], in assay [4], in assay [5], in assay [6] and in assay [7] was above 32 µg/mL throughout.

Take `NC[C@@H]1[C@H]2CN(C(=O)Nc3ccn(-c4ccc(CN5C[C@@H]6[C@@H](N)[C@@H]6C5)cc4)c(=O)n3)C[C@@H]12` [Compound 247]: the IC50 in assay [1] and in assay [2] was at least 1 µM in each case. Further, the MIC in assay [3], in assay [4], in assay [5], in assay [6] and in assay [7] was above 32 µg/mL throughout.

With `NCC1CCN(C(=O)Nc2ccn(-c3ccc(CN4C[C@@H]5[C@@H](N)[C@@H]5C4)cc3)c(=O)n2)CC1` [Compound 248], the IC50 in assay [1] and in assay [2] was at least 1 µM in each case. The MIC in assay [3], in assay [4], in assay [5], in assay [6] and in assay [7] was above 32 µg/mL throughout.

Turning to `N[C@@H]1[C@H]2CN(Cc3ccc(-n4ccc(NC(=O)N5C[C@@H]6[C@@H](N)[C@@H]6C5)nc4=O)cc3)C[C@@H]12` [Compound 249], the IC50 in assay [1] and in assay [2] was at least 1 µM in each case. Also, the MIC in assay [3] was above 32 µg/mL; in assay [4], 8 to 32 µg/mL; in assay [5], above 32 µg/mL; in assay [6], above 32 µg/mL; in assay [7], above 32 µg/mL.

In the case of `NCCC1CCN(C(=O)Nc2ccn(-c3ccc(CN4C[C@@H]5[C@@H](N)[C@@H]5C4)cc3)c(=O)n2)CC1` [Compound 250], the IC50 in assay [1] and in assay [2] was at least 1 µM throughout. The MIC in assay [3], in assay [4], in assay [5], in assay [6] and in assay [7] was above 32 µg/mL each time.

Turning to `NC[C@@H]1CCN(C(=O)Nc2ccn(-c3ccc(CN4C[C@@H]5[C@@H](N)[C@@H]5C4)cc3)c(=O)n2)C1` [Compound 251], the IC50 in assay [1] and in assay [2] was at least 1 µM each time. The MIC in assay [3], in assay [4], in assay [5], in assay [6] and in assay [7] was above 32 µg/mL in each case.

Regarding `NCC1CC2(CCN(C(=O)Nc3ccn(-c4ccc(CN5C[C@@H]6[C@@H](N)[C@@H]6C5)cc4)c(=O)n3)CC2)C1` [Compound 252], the IC50 in assay [1] is 0.5 to 1 µM; in assay [2], at least 1 µM. The MIC in assay [3] was above 32 µg/mL; in assay [4] it was below 8 µg/mL; in assay [5], above 32 µg/mL; in assay [6] it was above 32 µg/mL; in assay [7], below 8 µg/mL.

Take `NC[C@H]1CCN(C(=O)Nc2ccn(-c3ccc(CN4C[C@@H]5[C@@H](N)[C@@H]5C4)cc3)c(=O)n2)C1` [Compound 253]: the IC50 in assay [1] and in assay [2] was at least 1 µM throughout. The MIC in assay [3], in assay [4], in assay [5], in assay [6] and in assay [7] was above 32 µg/mL throughout.

`NCC1CN(C(=O)Nc2ccn(-c3ccc(CN4C[C@@H]5[C@@H](N)[C@@H]5C4)cc3)c(=O)n2)C1` [Compound 254]: the values for the IC50 in assay [1] and in assay [2] were 0.5 to 1 µM and at least 1 µM, respectively. The MIC in assay [3] is above 32 µg/mL; in assay [4], 8 to 32 µg/mL; in assay [5], above 32 µg/mL; in assay [6] it was above 32 µg/mL; in assay [7] it was above 32 µg/mL.

With `NCCC1CN(C(=O)Nc2ccn(-c3ccc(CN4C[C@@H]5[C@@H](N)[C@@H]5C4)cc3)c(=O)n2)C1` [Compound 255], the IC50 was 0.5 to 1 µM in assay [1] and at least 1 µM in assay [2]. Besides, the MIC is above 32 µg/mL in assay [3]; 8 to 32 µg/mL in assay [4]; above 32 µg/mL in assay [5]; above 32 µg/mL in assay [6]; above 32 µg/mL in assay [7].
